# Measured values from US20250032525A1 (priority 2021, published 2025).
# Test system: MDA-MB-231
# Test: In vitro cytotoxicity (PrestoBlue)
# Details: Homo sapiens, MDA-MB-231, 72 h, read-out: Cytotoxic IC50
# Protocol: Cells were seeded in 40 μl medium on 384 well plates by an automatic liquid handling machine (Hamilton StarLet) in a density of 2500 cells/well. Adherent cells were cultured for 24 h before the addition of the compounds, while drugs were added to non-adherent cells 2 h after cell seeding. The drugs were serially diluted, and dispensed in an additional 20 μl. Cells were incubated for an additional 72 h, cytotoxicity was assessed by the PrestoBlue viability reagent (Thermo Fisher). Experiments were repeated at least 3 times.
smiles,measurement,value
"COc1cccc2c1C(=O)c1c(O)c3c(c(O)c1C2=O)C[C@@](O)(C(C)=O)C[C@@H]3O[C@H]1C[C@H]2[C@H](OC3CCCN32)[C@H](C)O1 (stereo partly shown) [PyDau, 2-deamino-2-pyrrolino-daunorubicin]",IC50,1.09 nM
